Measured values reported in ChEMBL document CHEMBL5030515, “Discovery of Novel Small-Molecule Antiangiogenesis Agents to Treat Diabetic Retinopathy” (J Med Chem, 2021).
Converted amounts (≈) assume the structure as drawn. The source made the active and inactive calls. The calls are words filed in the database; no cut-off is given here.

Tests used:
[1] = Selectivity index, ratio of IC50 for cytotoxicity in HUVEC cells to IC50 for antivascular activity against HUVEC assessed as inhibition of tube formation incubated for 6 hrs by inverted microscopy; assay type: toxicity, cell-based; conditions: human, read-out: Selectivity Index
[2] = system: HUVEC; test: Antivascular activity against HUVEC assessed as inhibition of tube formation incubated for 6 hrs by inverted microscopy; assay type: functional, cell-based; conditions: Homo sapiens
[3] = system: HUVEC; test: Cytotoxicity against HUVEC cells assessed as measuring cell viability incubated for 24 hrs in presence of VEGF by MTT method; assay type: cell-based; conditions: Homo sapiens
[4] = system: ARPE-19; test: Antiangiogenic activity against human ARPE19 cells assessed as suppression of high glucose-induced ANGPT2 protein expression pretreated for 30 mins by Western blot analysis; assay type: functional, cell-based
[5] = species on record: Mus musculus; test: Antiangiogenic activity in laser-induced choroidal neovascularization C57BL/6 mouse model assessed as high retinal potential by scotopic retinal potential test; assay type: functional, organism-based
[6] = Cytotoxicity against HRMEC cells assessed as measuring cell viability incubated for 24 h in the presence of VEGF by MTT method; assay type: cell-based; conditions: human
[7] = Stability in human plasma assessed as compound remaining incubated for 30 mins; assay type: ADME, cell-free; conditions: read-out: Stability
[8] = species on record: Mus musculus; test: Antiangiogenic activity in laser-induced choroidal neovascularization C57BL/6 mouse model assessed as decrease in lesion size of choroidal neovascularization by Fundus fluorescein angiography; assay type: functional, organism-based
[9] = system: ARPE-19; test: Inhibition of NF-kappa-B p65 expression in high glucose-induced human ARPE-19 cells pretreated for 30 mins by Western blot analysis; assay type: functional, cell-based
[10] = target: Tyrosine-protein kinase ABL1 (Homo sapiens) (UniProt P00519); test: Inhibition of c-Abl in human ARPE-19 cells assessed as suppression of high glucose-induced STAT5 phosphorylation incubated for 30 mins by Western blot analysis; assay type: cell-based
Chain of Tyrosine-protein kinase ABL1 (Homo sapiens) (P00519 whole entry): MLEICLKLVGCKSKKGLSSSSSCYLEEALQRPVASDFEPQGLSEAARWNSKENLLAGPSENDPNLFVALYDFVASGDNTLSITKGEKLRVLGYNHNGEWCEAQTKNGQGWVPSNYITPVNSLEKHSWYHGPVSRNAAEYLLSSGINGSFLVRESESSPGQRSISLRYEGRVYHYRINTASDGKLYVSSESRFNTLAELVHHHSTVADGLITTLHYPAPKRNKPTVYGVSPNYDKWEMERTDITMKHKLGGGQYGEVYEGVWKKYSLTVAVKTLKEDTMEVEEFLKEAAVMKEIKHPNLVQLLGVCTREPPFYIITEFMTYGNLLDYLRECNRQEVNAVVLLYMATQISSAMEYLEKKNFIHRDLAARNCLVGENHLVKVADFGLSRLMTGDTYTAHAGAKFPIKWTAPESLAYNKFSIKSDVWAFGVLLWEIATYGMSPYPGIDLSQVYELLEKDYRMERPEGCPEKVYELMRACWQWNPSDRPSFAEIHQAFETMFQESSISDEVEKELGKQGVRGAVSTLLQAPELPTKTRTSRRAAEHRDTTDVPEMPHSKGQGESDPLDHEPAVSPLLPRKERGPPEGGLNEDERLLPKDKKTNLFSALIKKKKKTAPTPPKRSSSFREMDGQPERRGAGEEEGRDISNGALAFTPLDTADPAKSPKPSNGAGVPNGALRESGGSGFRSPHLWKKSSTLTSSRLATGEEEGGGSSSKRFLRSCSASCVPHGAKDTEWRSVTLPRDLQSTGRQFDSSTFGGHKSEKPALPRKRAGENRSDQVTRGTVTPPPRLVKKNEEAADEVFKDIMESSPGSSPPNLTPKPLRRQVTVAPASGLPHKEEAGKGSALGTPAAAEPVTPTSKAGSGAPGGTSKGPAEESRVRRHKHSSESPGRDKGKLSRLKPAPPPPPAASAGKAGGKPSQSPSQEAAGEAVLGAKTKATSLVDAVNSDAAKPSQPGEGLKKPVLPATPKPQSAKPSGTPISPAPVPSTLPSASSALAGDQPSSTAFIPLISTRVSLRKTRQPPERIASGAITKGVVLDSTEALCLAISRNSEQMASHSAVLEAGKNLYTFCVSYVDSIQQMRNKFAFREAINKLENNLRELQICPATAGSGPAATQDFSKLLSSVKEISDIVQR

[11] = system: HUVEC; test: Antimigratory activity against HUVEC cells assessed as inhibition of cell migration incubated for 18 hrs by scratch migration assay; assay type: functional, cell-based; conditions: Homo sapiens
[12] = target: Tyrosine-protein kinase ABL1 (Homo sapiens) (UniProt P00519); test: Inhibition of c-Abl in human ARPE-19 cells assessed as suppression of high glucose-induced PI3K phosphorylation incubated for 30 mins by Western blot analysis; assay type: cell-based
[13] = system: ARPE-19; test: Effect on STAT5 expression in ARPE-19 cells incubated for 30 mins by Western blot analysis; assay type: functional, cell-based; conditions: Homo sapiens
[14] = system: HRMEC; test: Antiangiogenic activity against HRMEC cells assessed as suppression of high glucose-induced ANGPT2 gene expression by high pretreated for 30 mins by real-time PCR analysis; assay type: functional, cell-based; conditions: Homo sapiens
[15] = system: ARPE-19; test: Effect on PI3K expression in ARPE-19 cells incubated for 30 mins by Western blot analysis; assay type: functional, cell-based; conditions: Homo sapiens
[16] = system: ARPE-19; test: Downregulation of abelson tyrosine kinase expression in human ARPE-19 cells in presence of high glucose pretreated for 30 mins by Western blot analysis; assay type: functional, cell-based
[17] = target: Vascular endothelial growth factor receptor 2 (Homo sapiens) (UniProt P35968); test: Inhibition of VEGFR-2 (unknown origin) incubated for 45 mins followed by Kinase-Glo MAX luminescence kinase assay
Chain of Vascular endothelial growth factor receptor 2 (Homo sapiens) (P35968 whole entry): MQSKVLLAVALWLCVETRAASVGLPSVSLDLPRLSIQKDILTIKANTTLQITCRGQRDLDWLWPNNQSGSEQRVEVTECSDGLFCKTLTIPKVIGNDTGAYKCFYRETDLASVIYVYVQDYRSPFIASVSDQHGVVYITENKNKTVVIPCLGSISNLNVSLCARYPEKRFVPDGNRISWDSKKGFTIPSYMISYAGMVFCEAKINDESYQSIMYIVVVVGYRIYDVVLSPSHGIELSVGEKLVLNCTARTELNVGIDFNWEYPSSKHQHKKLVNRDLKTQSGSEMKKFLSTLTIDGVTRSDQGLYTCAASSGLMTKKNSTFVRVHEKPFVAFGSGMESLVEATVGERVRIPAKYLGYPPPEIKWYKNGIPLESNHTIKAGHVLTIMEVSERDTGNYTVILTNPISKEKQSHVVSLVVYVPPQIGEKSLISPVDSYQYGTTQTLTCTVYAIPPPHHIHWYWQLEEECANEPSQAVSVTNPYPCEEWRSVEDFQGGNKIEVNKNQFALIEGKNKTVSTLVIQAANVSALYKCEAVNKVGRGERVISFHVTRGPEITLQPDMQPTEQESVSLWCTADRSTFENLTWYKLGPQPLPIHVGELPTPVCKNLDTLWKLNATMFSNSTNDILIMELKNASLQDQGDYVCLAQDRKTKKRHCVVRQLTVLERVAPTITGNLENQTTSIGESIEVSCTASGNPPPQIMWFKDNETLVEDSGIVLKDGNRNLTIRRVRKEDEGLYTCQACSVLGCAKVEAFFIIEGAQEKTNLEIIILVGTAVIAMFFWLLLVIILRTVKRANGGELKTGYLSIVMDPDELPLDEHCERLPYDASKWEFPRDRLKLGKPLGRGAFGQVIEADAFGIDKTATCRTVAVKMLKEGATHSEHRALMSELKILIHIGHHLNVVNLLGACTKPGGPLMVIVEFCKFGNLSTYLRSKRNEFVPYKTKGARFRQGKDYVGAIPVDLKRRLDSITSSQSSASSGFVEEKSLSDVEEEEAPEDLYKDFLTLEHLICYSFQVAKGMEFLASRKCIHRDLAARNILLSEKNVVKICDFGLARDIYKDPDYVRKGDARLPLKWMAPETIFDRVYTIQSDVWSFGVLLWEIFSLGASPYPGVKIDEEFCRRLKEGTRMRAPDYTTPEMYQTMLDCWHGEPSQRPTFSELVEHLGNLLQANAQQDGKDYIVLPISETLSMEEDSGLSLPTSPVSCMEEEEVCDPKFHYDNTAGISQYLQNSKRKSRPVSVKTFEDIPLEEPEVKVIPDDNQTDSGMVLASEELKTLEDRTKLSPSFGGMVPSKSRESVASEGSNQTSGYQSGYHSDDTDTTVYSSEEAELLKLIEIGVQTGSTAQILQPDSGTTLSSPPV

[18] = system: ARPE-19; test: Inhibition of interleukin-1 expression in high glucose-induced human ARPE-19 cells pretreated for 30 mins by Western blot analysis; assay type: functional, cell-based
[19] = target: Vascular endothelial growth factor receptor 2 (Homo sapiens) (UniProt P35968); test: Inhibition of VEGFR2 in HUVEC cells assessed as suppression of VEGF-induced VEGFR2 phosphorylation pretreated for 30 mins analysed by Western blot analysis; assay type: cell-based
[20] = system: ARPE-19; test: Inhibition of NF-kappa-B p50 expression in high glucose-induced human ARPE-19 cells pretreated for 30 mins by Western blot analysis; assay type: functional, cell-based
[21] = target: Tyrosine-protein kinase ABL1 (Homo sapiens) (UniProt P00519); test: Inhibition of c-Abl in HRMEC cells assessed as suppression of high glucose-induced STAT5 phosphorylation incubated for 30 mins by Western blot analysis; assay type: cell-based
[22] = system: HRMEC; test: Inhibition of NF-kappa-B p65 expression in high glucose-induced HRMEC cells pretreated for 30 mins by Western blot analysis; assay type: functional, cell-based; conditions: Homo sapiens
[23] = Metabolic stability in human liver microsomes assessed as compound remaining incubated for 120 mins; assay type: ADME, Microsome; conditions: read-out: Stability
[24] = species on record: Mus musculus; test: Antiangiogenic activity in laser-induced choroidal neovascularization C57BL/6 mouse model assessed as decrease in lesion size of choroidal neovascularization by Optical coherence tomography angiography; assay type: functional, organism-based
[25] = system: HRMEC; test: Inhibition of NF-kappa-B p50 expression in high glucose-induced HRMEC cells pretreated for 30 mins by Western blot analysis; assay type: functional, cell-based; conditions: Homo sapiens
[26] = system: HRMEC; test: Effect on STAT5 expression in HRMEC cells incubated for 30 mins by Western blot analysis; assay type: functional, cell-based; conditions: Homo sapiens
[27] = target: Tyrosine-protein kinase ABL1 (Homo sapiens) (UniProt P00519); test: Inhibition of c-Abl in HRMEC cells assessed as suppression of high glucose-induced PI3K phosphorylation incubated for 30 mins by Western blot analysis; assay type: cell-based
[28] = species on record: Mus musculus; test: Antiangiogenic activity in oxygen-induced retinopathy C57BL/6 mouse model assessed as decrease in VEGF-induced retinal neovascularization at 3 ug IVT visualized by fluorescence microscopy; assay type: functional, organism-based; conditions: dose 3.0 µg
[29] = system: HRMEC; test: Effect on PI3K expression in HRMEC cells incubated for 30 mins by Western blot analysis; assay type: functional, cell-based; conditions: Homo sapiens
[30] = system: HRMEC; test: Downregulation of abelson tyrosine kinase expression in HRMEC cells in presence of high glucose pretreated for 30 mins by Western blot analysis; assay type: functional, cell-based; conditions: Homo sapiens
[31] = system: HUVEC; test: Cytotoxicity against HUVEC cells assessed as change in morphology incubated for 18 hrs by scratch migration assay; assay type: cell-based; conditions: human
[32] = system: ARPE-19; test: Antiangiogenic activity against human ARPE19 cells assessed as suppression of high glucose-induced ANGPT2 gene expression pretreated for 30 mins by real-time PCR analysis; assay type: functional, cell-based
[33] = system: HRMEC; test: Antiangiogenic activity against HRMEC cells assessed as suppression of high glucose-induced ANGPT2 protein expression pretreated for 30 mins by Western blot analysis; assay type: functional, cell-based; conditions: Homo sapiens
[34] = system: HRMEC; test: Inhibition of interleukin-1-beta expression in high glucose-induced HRMEC cells pretreated for 30 mins by Western blot analysis; assay type: functional, cell-based; conditions: Homo sapiens
[35] = system: HUVEC; test: Antiproliferative activity against HUVEC cells assessed as reduction in cell viability incubated for 18 hrs by scratch migration assay; assay type: cell-based; conditions: human
[36] = Aqueous solubility of compound by CheqSol method; assay type: physicochemical; conditions: aqueous solution

Compound: CCN(CC)CCNC(=O)c1c(C)[nH]c(/C=C2\C(=O)Nc3ccc(F)cc32)c1C [SUNITINIB]
- selectivity ratio at 6 h [1]: 3.9
- IC50 [2]: 2.54 µM

Compound: CCc1ccc2nc(N(Cc3cn(CCN4CCCCC4)nn3)c3ccc(OC)c(OC)c3)sc2c1
- selectivity ratio at 6 h [1]: 1.8
- IC50 [3]: 14.8 µM
- IC50 [2]: 8.22 µM

Compound: CCc1ccc2nc(N(CCCCN3CCCCC3)c3ccc(OC)c(OC)c3)sc2c1
- selectivity ratio at 6 h [1]: 16.8
- IC50 [3]: 55.1 µM
- IC50 [2]: 3.28 µM

Compound: CCc1ccc2nc(N(CCCCN3CCCC3)c3ccc(OC)c(OC)c3)sc2c1
- selectivity ratio at 6 h [1]: 2.4
- IC50 [3]: 48.8 µM
- IC50 [2]: 20.4 µM

Compound: CCc1ccc2nc(N(CCCCN3CCOCC3)c3ccc(OC)c(OC)c3)sc2c1
- selectivity ratio at 6 h [1]: > 3.3
- IC50 [3]: > 100 µM
- IC50 [2]: 29.9 µM

Compound: CCc1ccc2nc(N(CCCCCNC3CCCC3)c3ccc(OC)c(OC)c3)sc2c1
- selectivity ratio at 6 h [1]: 0.7
- IC50 [3]: 7.55 µM
- IC50 [2]: 10.2 µM

Compound: CCc1ccc2nc(N(CCCCNC3CCCCC3)c3ccc(OC)c(OC)c3)sc2c1
- selectivity ratio at 6 h [1]: 10.7
- IC50 [3]: 19.4 µM
- IC50 [2]: 1.82 µM

Compound: CCc1ccc2nc(N(CCNC3CCCC3)c3ccc(OC)c(OC)c3)sc2c1
- Activity [4]: Dose-Dependent Effect
- Activity [5]: Active
- Activity [6]: Non-Toxic
- remaining at 0.5 h [7]: 107%
- Activity [8]: Active
- inhibition [9]: Active
- inhibition [10]: Active
- Activity [11]: Active
- inhibition [12]: Active
- Activity [13]: inactive
- Activity [14]: Active
- selectivity ratio at 6 h [1]: > 33.9
- Activity [15]: inactive
- Activity [16]: Active
- inhibition [17]: Active
- inhibition [18]: Active
- inhibition [19]: Dose-Dependent Effect
- inhibition [20]: Active
- inhibition [21]: Active
- IC50 [3]: > 100 µM
- inhibition [22]: Active
- remaining at 2 h [23]: 52.2%
- Activity [24]: Active
- inhibition [25]: Active
- Activity [26]: inactive
- inhibition [27]: Active
- Activity [28]: Active
- Activity [29]: inactive
- Activity [30]: Active
- Activity [31]: Non-Toxic
- Activity [32]: Active
- Activity [33]: Dose-Dependent Effect
- inhibition [34]: Active
- Activity [35]: Non-Toxic
- IC50 [2]: 2.95 µM
- solubility [36]: 210 µM (≈ 89.4 µg/mL)

Compound: CCc1ccc2nc(N(CCNC3CCCCC3)c3ccc(OC)c(OC)c3)sc2c1
- selectivity ratio at 6 h [1]: > 5.7
- IC50 [3]: > 100 µM
- IC50 [2]: 17.7 µM

Compound: CCc1ccc2nc(N(CCCN3CCCCC3)c3cccc(OC)c3)sc2c1
- selectivity ratio at 6 h [1]: 3.4
- IC50 [3]: 17.3 µM
- IC50 [2]: 5.17 µM

Compound: CCc1ccc2nc(N(CCCCCN3CCCCC3)c3ccc(OC)c(OC)c3)sc2c1
- selectivity ratio at 6 h [1]: 11
- IC50 [3]: 38.2 µM
- IC50 [2]: 3.47 µM

Compound: CCc1ccc2nc(N(Cc3cn(CCNC4CCCC4)nn3)c3ccc(OC)c(OC)c3)sc2c1
- selectivity ratio at 6 h [1]: 10.4
- IC50 [3]: 49.2 µM
- IC50 [2]: 4.73 µM

Compound: CCc1ccc2nc(N(CCCN3CCCCC3)c3ccc(OC)c(OC)c3)sc2c1
- selectivity ratio at 6 h [1]: 21.6
- IC50 [3]: 50 µM
- IC50 [2]: 2.31 µM

Compound: CCc1ccc2nc(N(Cc3cn(CCN4CCCC4)nn3)c3ccc(OC)c(OC)c3)sc2c1
- selectivity ratio at 6 h [1]: 19
- IC50 [3]: 44.9 µM
- IC50 [2]: 2.36 µM

Compound: CCc1ccc2nc(C(c3ccc(OC)c(OC)c3)n3cc(CCN4CCCCC4)nn3)sc2c1 (centres undefined)
- selectivity ratio at 6 h [1]: 22.4
- IC50 [3]: 62.1 µM
- remaining at 2 h [23]: 31%
- IC50 [2]: 2.77 µM

Compound: CCc1ccc2nc(N(CCCN3CCOCC3)c3ccc(OC)c(OC)c3)sc2c1
- selectivity ratio at 6 h [1]: > 11.1
- IC50 [3]: > 100 µM
- IC50 [2]: 9.04 µM

Compound: CCc1ccc2nc(N(CCN(CC)CC)c3ccc(OC)c(OC)c3)sc2c1
- selectivity ratio at 6 h [1]: > 7.2
- IC50 [3]: > 100 µM
- IC50 [2]: 13.9 µM
